No end group written: not given here. Me3 = trimethyl-lysine (Lys side chain trimethylated); {FAM} = FAM (fluorescein) label on dsDNA for MST
Experiments:
HRP3 PWWP aromatic cage = assay: Crystal structure of apo-form HRP3 PWWP (8–94), MES in aromatic cage; type: binding, human; details: 0.95 Å
Experimental: Crystallization was conducted using the sitting drop vapour diffusion method by mixing an equal volume of protein and well solution. Apo-form HRP3 PWWP (8–94) was crystallized with crystallization buffer containing 0.2 M ammonium sulfate, 0.1 M MES monohydrate, pH 6.5 and 30% w/v polyethylene glycol monomethyl ether 5000. The crystallization buffer containing 12% 2,3-butanediol was used as the cryoprotectant.
Datasets for all crystals were collected at the beamlines of the Shanghai Synchrotron Radiation Facility (SSRF). The datasets were processed using HKL2000 ([33]), and the structures were solved by molecular replacement using the programme PHENIX ([34]) with the HDGF2 PWWP domain (PDB number: 3EAE) as the search model. The initial model was rebuilt in COOT ([35]) and further refined by PHENIX.

chromatin of HepG2 cells = assay: ChIP-Seq of GFP-HRP3 variants in HepG2 cells; type: cell-based, human
Experimental: (§1) HepG2 (ATCC HB-8065) and HEK293T human embryonic kidney cells (ATCC #CRL-11268) were cultured in Dulbecco’s modified Eagle’s medium supplemented with 10% FBS. Stable overexpression of wild-type or mutant HRP3 in HepG2 cells was performed using FUGW lentiviral constructs expressing wild-type or mutant HRP3. Lentiviral vector infections ([47]) and plasmid transfections ([48]) were performed as previously described. Overexpression efficiency was determined by western blot.
For chromatin immunoprecipitation, HepG2 cells were cross-linked with 1% formaldehyde at 37°C for 10 min and quenched with 0.125 M glycine for 5 min at room temperature. ChIP was performed using a ChIP assay kit (Millipore) according to the manufacturer’s protocol. Antibodies used for ChIP were GFP (gta-20, Chromo-Tek) and H3K36me3 (ab9050, abcam).
ChIP-Seq data were aligned to human genome hg19 using Bowtie 1.0 allowing one mismatch. Two biological replicates were performed and combined for the analysis. Analysis was performed using the Galaxy ([49]) and Cistrome ([50]) Platform and via custom R scripts for Bioconductor ([51]). Peak calling was performed using MACS2. Promoter definitions were downloaded from the UCSC browser ([52]). DNase I hypersensitivity and MNase-Seq data from ENCODE (GSM816662, GSM920557) ([53]) were used.

HepG2 cells = assay: Fluorescence microscopy of GFP-HRP3 in HepG2 cells; type: cell-based, human; details: GFP fusion in HepG2 cells
Experimental: as §1
The cells were first fixed with 4% paraformaldehyde in PBS buffer for 30 min at room temperature, and then washed with PBS buffer twice. The cells were permeabilized with 0.5% Triton X-100 in PBS buffer for 10 min followed with PBS washing twice. Then, the cells were incubated with1 μg/ml 4′,6-diamidino-2-phenylindole (DAPI) (C0060, Solarbio) in PBS for 5 min. After washing with PBS buffer twice, the cells were ready for microscopic observation. 3D structural illumination microscopy was performed using N-SIM Super-resolution Microscope System (Nikon) with an objective lens CFI Plan (Apochromat Lambda 40 ×, 0.95 numerical aperture; Nikon).

HRP3 PWWP Y22A = molecular target: T1, HRP3 PWWP Y22A (Homo sapiens, UniProt Q9Y3E1, Y22A); assay: NMR titration of H3K36me3 peptide with HRP3 PWWP Y22A; type: binding; details: H3 residues 29–41, 20 mM PBS pH 6.9, 298 K
T1 construct: using ^15N-labelled HRP3 PWWP (residues 1–110) dissolved in buffer; 6xHis-SUMO (cleaved yes); made in house; host or cells: Escherichia coli Rosetta (DE3)
T1 sequence (Q9Y3E1 1-110 Y22A): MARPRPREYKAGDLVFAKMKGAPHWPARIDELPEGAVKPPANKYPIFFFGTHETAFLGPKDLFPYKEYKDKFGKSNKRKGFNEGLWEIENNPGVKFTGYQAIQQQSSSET
Experimental: (§2) All 2D ^1H-^15N HSQC NMR spectra were collected on the Bruker Avance III HD 600 MHz and 800 MHz spectrometers at 298 K. The NMR data were processed by NMRPipe ([39]) and analysed by KUJIRA ([40]) running with NMRview ([41]) softwares. Chemical shift perturbation experiments were carried out using ^15N-labelled HRP3 PWWP (residues 1–110) dissolved in buffer containing 20 mM PBS at pH 6.9, 20 mM NaCl and 2 mM DTT. A series of 2D ^1H-^15N HSQC spectra were recorded at HRP3 PWWP:H3K36me3/2/1/0 (residues 29–41) molar ratios of 1:0, 1:0.5, 1:1.5, 1:4, 1:6, 1:10, 1:15 and 1:20, respectively. The combined chemical shift perturbation was calculated using the following equation: Δδ = [(Δδ^1H)^2 + (Δδ^15N/5)^2]^1/2. Dissociation constants were calculated by fitting the data to a single-site ligand-binding model (SigmaPlot).

HRP3 PWWP WT = molecular target: T2, HRP3 PWWP WT (Homo sapiens, UniProt Q9Y3E1); assay: NMR titration of H3K36 peptides with wild-type HRP3 PWWP; type: binding; details: 15N-labelled HRP3 PWWP (1–110) WT, H3 residues 29–41, 20 mM PBS pH 6.9, 20 mM NaCl, 2 mM DTT, 298 K
T2 construct: using ^15N-labelled HRP3 PWWP (residues 1–110) dissolved in buffer; 6xHis-SUMO (cleaved yes); made in house; host or cells: Escherichia coli Rosetta (DE3)
T2 sequence (Q9Y3E1 1-110): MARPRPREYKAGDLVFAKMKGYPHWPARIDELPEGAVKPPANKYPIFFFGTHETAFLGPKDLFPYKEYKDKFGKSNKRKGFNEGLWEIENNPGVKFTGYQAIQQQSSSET
Experimental: as §2

HRP3 PWWP E53A = molecular target: T3, HRP3 PWWP E53A (Homo sapiens, UniProt Q9Y3E1, E53A); assay: NMR titration of H3K36me3 peptide with HRP3 PWWP E53A; type: binding; details: H3 residues 29–41, 20 mM PBS pH 6.9, 298 K
T3 construct: using ^15N-labelled HRP3 PWWP (residues 1–110) dissolved in buffer; 6xHis-SUMO (cleaved yes); made in house; host or cells: Escherichia coli Rosetta (DE3)
T3 sequence (Q9Y3E1 1-110 E53A limits assumed): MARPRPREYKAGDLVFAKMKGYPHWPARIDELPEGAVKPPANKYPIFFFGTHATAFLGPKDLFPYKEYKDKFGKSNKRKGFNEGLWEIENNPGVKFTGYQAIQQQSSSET
Experimental: as §2

HRP3 PWWP F48A = molecular target: T4, HRP3 PWWP F48A (Homo sapiens, UniProt Q9Y3E1, F48A); assay: NMR titration of H3K36me3 peptide with HRP3 PWWP F48A; type: binding; details: H3 residues 29–41, 20 mM PBS pH 6.9, 298 K
T4 construct: using ^15N-labelled HRP3 PWWP (residues 1–110) dissolved in buffer; 6xHis-SUMO (cleaved yes); made in house; host or cells: Escherichia coli Rosetta (DE3)
T4 sequence (Q9Y3E1 1-110 F48A limits assumed): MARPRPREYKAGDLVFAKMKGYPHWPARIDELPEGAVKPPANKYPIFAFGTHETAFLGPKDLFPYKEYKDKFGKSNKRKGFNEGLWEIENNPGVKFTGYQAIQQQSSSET
Experimental: as §2

HRP3 PWWP [1] = assay: DNA geometry analysis of the PWWP/DNA complex structures; design: species or system human
Experimental: DNA geometry was analysed with the 3DNA ([42]) and Curves+ ([43]) programs. Electrostatic potentials were calculated using the DelPhi program ([44]). The minor groove width was measured according to the method described ([45]). In detail, the distances between the ith (i indicates the number of the base from one chain) phosphate atom from one chain and the (i + 4)th atom from the paired chain were used to describe the minor groove width at the ith base. Electrostatic potentials were calculated at the midpoints between the above phosphate atom pairs used to calculate the minor groove widths.

HRP3 PWWP [2] = assay: MST binding of 5′-FAM-labelled dsDNAs to HRP3 PWWP; design: species or system human; details: 16-mer-TA versus 16-mer-random and 16-mer-GC
Experimental: All Mircoscale thermophoresis (MST) experiments were performed on a Monolith NT115 machine with 20% MST power and 100% LED power. All protein and DNA samples were dissolved in solution containing 50 mM KCl, 10 mM sodium cacodylate at pH 6.5 and 2 mM DTT. The MST samples were prepared by mixing HRP3(1-110) at concentrations ranging from 3 nM to 100 μM into a solution containing 200 nM 5′-FAM-labelled dsDNA. Experiments were performed using Monolith NT115 Standard Treated Capillaries, MO-K002. Dissociation constants were fitted with the MO Affinity Analysis software.
The DNA sequences used in this assay are as follows: 5′-FAM-16TA: 5′-[…]-3′; 5′-FAM-16GC: 5′-[…]-3′; and 5′-FAM-16random: 5′-[…]-3′.

HRP3 PWWP [3] = assay: ITC of HRP3 PWWP with dsDNAs; type: binding, human; details: 20°C, HRP3 PWWP (1–110), 10 mM PBS pH 7.0, 50 mM NaCl, 2 mM β-mercaptoethanol
Experimental: Isothermal titration calorimetry-based measurements were carried out at 20°C with a MicroCal iTC200 instrument. HRP3 PWWP (1–110) and various dsDNAs were dialysed overnight at 4°C in titration buffer containing 10 mM phosphate-buffered saline (PBS) at pH 7.0, 50 mM NaCl and 2 mM β-mercaptoethanol. Calorimetric titration data were fitted with the Origin software under the algorithm of one binding-site model.

HRP3 PWWP (1-110) WT = HRP3 PWWP (1-110) WT (UniProt Q9Y3E1 1-110); assay: MST; MST: 50 mM KCl, 10 mM Na cacodylate pH 6.5, 2 mM DTT, 200 nM FAM-dsDNA; ITC: 10 mM PBS pH 7.0, 50 mM NaCl, 2 mM b-ME, 20 C; nucleosome EMSA: 20 mM Tris pH 7.5; details: protein: recombinant; tags: none (His-SUMO removed); label: 5'-FAM (MST); blunt; self-complementary
Chain of HRP3 PWWP (1-110) WT (Q9Y3E1 1-110): as the sequence (Q9Y3E1 1-110) above

[4] = molecular target: HRP3 PWWP K18A/N76A/R78A (KNR-A) (UniProt Q9Y3E1 1-110, K18A;N76A;R78A); assay: as above; details: protein: recombinant; tags: none (His-SUMO removed); label: 5'-FAM (MST); blunt; self-complementary
Chain of HRP3 PWWP K18A/N76A/R78A (KNR-A) (Q9Y3E1 1-110 K18A/N76A/R78A): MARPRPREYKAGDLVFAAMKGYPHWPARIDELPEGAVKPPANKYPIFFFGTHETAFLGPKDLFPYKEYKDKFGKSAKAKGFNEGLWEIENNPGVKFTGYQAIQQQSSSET

HRP3 PWWP N76A = HRP3 PWWP N76A (UniProt Q9Y3E1 1-110, N76A); assay: MST; affinity unchanged vs WT; MST: 50 mM KCl, 10 mM Na cacodylate pH 6.5, 2 mM DTT, 200 nM FAM-dsDNA; ITC: 10 mM PBS pH 7.0, 50 mM NaCl, 2 mM b-ME, 20 C; nucleosome EMSA: 20 mM Tris pH 7.5; details: protein: recombinant; tags: none (His-SUMO removed); label: 5'-FAM (MST); blunt; self-complementary
Chain of HRP3 PWWP N76A (Q9Y3E1 1-110 N76A): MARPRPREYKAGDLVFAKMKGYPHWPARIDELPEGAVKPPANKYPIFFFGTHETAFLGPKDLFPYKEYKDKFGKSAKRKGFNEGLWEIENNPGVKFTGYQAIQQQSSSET

[5] = molecular target: T5, HRP3 PWWP domain (residues 1–110) E53A (human, UniProt Q9Y3E1 1-110, E53A); assay: NMR titration; 2D 1H-15N HSQC chemical shift perturbation of 15N-labelled HRP3 PWWP (1–110); H3 peptide (29–41) added to molar ratios 1:0 to 1:20; 298 K; 20 mM PBS pH 6.9, 20 mM NaCl, 2 mM DTT; single-site ligand-binding fit; details: both partners purified
T5 construct: HDGF-related protein 3 (HRP3, HDGFL3), human, residues 1-110 holding the PWWP domain; they are not repeated for the mutants; source: E. coli Rosetta (DE3), purified (nickel column, gel filtration), 15N-labelled
T5 sequence (Q9Y3E1 1-110 E53A): as the sequence (Q9Y3E1 1-110 E53A limits assumed) above

[6] = molecular target: T6, HRP3 PWWP domain (residues 1–110) F48A (human, UniProt Q9Y3E1 1-110, F48A); assay: as above; details: both partners purified
T6 construct: HDGF-related protein 3 (HRP3, HDGFL3), human, residues 1-110 holding the PWWP domain, aromatic cage mutant; they are not repeated for the mutants; source: E. coli Rosetta (DE3), purified (nickel column, gel filtration), 15N-labelled
T6 sequence (Q9Y3E1 1-110 F48A): as the sequence (Q9Y3E1 1-110 F48A limits assumed) above

[7] = molecular target: T7, HRP3 PWWP domain (residues 1–110) Y22A (human, UniProt Q9Y3E1 1-110, Y22A); assay: as above; details: both partners purified
T7 construct: HDGF-related protein 3 (HRP3, HDGFL3), human, residues 1-110 holding the PWWP domain, aromatic cage mutant; they are not repeated for the mutants; source: E. coli Rosetta (DE3), purified (nickel column, gel filtration), 15N-labelled
T7 sequence (Q9Y3E1 1-110 Y22A): as the sequence (Q9Y3E1 1-110 Y22A) above

[8] = molecular target: T8, HRP3 PWWP domain (residues 1–110) (human, UniProt Q9Y3E1 1-110); assay: as above; details: both partners purified
T8 construct: HDGF-related protein 3 (HRP3, HDGFL3), human, residues 1-110 holding the PWWP domain; His-SUMO tag removed by ULP1 protease; also called HRP3 PWWP (1–110); HRP3(1-110); source: E. coli Rosetta (DE3), purified (nickel column, gel filtration), 15N-labelled
T8 sequence (Q9Y3E1 1-110): as the sequence (Q9Y3E1 1-110) above

Molecule: O=S(=O)(O)CCN1CCOCC1 [MES]
- position of bound molecule (HRP3 PWWP aromatic cage): positioned in the middle of the aromatic cage

Molecule: HRP3: wild-type human HRP3 as GFP fusion protein in HepG2 cells
- DNase I hypersensitivity and nucleosome density of HRP3-enriched regions (chromatin of HepG2 cells; ChIP-Seq versus ENCODE DNase I / MNase-Seq data): increased DNase I hypersensitivity and reduced nucleosome density
- chromatin binding / recruitment by ChIP-Seq (chromatin of HepG2 cells; ChIP-Seq with GFP antibody, HepG2, two biological replicates combined): enriched at promoters and gene bodies
- specific DNA-binding motif enrichment (chromatin of HepG2 cells; ChIP-Seq, HepG2): could not detect the enrichment of a specific DNA-binding motif
- subcellular localisation (HepG2 cells): enriched in the nucleus

Molecule: CC(C)[C@H](NC(=O)CNC(=O)CNC(=O)[C@@H](NC(=O)[C@H](C)NC(=O)[C@@H]1CCCN1C(=O)[C@H](C)N)[C@@H](C)O)C(=O)N[C@@H](CCCC[N+](C)(C)C)C(=O)N[C@@H](CCCCN)C(=O)N1CCC[C@H]1C(=O)N[C@@H](Cc1c[nH]cn1)C(=O)N[C@@H](CCCNC(=N)N)C(=O)N[C@@H](Cc1ccc(O)cc1)C(=O)O [H3K36me3]
- Kd (HRP3 PWWP Y22A): 21 ± 9 mM
- Kd (HRP3 PWWP WT): 1.4 ± 0.6 mM
- Kd (HRP3 PWWP E53A): 8 ± 1.9 mM
- Kd (HRP3 PWWP F48A): 9.4 ± 2.1 mM

Molecule: 5′-TATATATATATATATA-3′ (DNA, 5' {FAM}, backbone not given here; double-stranded DNA, FAM label in MST assay) [16-mer-TA, 16-bp TA-rich dsDNA]
- average helical twist (HRP3 PWWP [1]; 3DNA): 37.1 °
- average propeller twist (HRP3 PWWP [1]; 3DNA): −11.2 °
- bending angle towards the minor groove per 6 bps (HRP3 PWWP [1]; Curve+ software): 2.9 °
- width of the minor groove, PWWP-binding region (HRP3 PWWP [1]; crystal structure of complex): 10.7 Å
- width of the minor groove, PWWP-free region (HRP3 PWWP [1]; crystal structure of complex): 10.8 Å
- fold higher affinity (HRP3 PWWP [2]): 2–3 fold
- TA-rich preference by ITC (HRP3 PWWP [3]): TA-rich preference was further verified by ITC-based measurements

B1: 16-mer-TA (dsDNA)
DNA 1: TATATATATATATATA
DNA 2: TATATATATATATATA
- Kd (HRP3 PWWP (1-110) WT): 0.0013 mM
- binding signal [4]: 58 fold loss vs WT
- binding result (HRP3 PWWP N76A): binds

B2: H3K36me3 histone peptide (H3 residues 29–41) (peptide, UniProt P68431 30-42, looked up)
peptide: APATGGVK(Me3)KPHRY
notes: histone H3, residues 29-41; also called H3K36me3 peptide; H3K36me3-containing peptide
- fold decrease of binding against wild type [5]: 5.7 fold
- fold loss of binding affinity against wild type [6]: 6.7 fold
- fold loss of binding affinity against wild type [7]: 15 fold
- Kd [8]: 1.3 mM

— paper PMC6547440, “The HRP3 PWWP domain recognizes the minor groove of double-stranded DNA and recruits HRP3 to chromatin” (Nucleic Acids Research, 2019)
